Source: patent publication US9914735B2, “Heteroaryl Syk inhibitors” (Boehringer Ingelheim International GmbH, priority 2014, dated 2018)
Where two headings read alike, the source gives them in different places.

Key:
[1] = target: Human GSK3beta (Homo sapiens (Human), UniProt P49841); experiment: GSK 3beta kinase test (Z'-LYTE); assay type: biochemical; conditions: read-out: IC50 in μM (GSK3beta-Inhibition)
Protocol: Human GSK3beta (expressed and prified from SF21 cells) is obtained from the University Dundee/Scotland (Dr. James Hastie—Dept. of Biochemistry) in 50 mM Tris (pH7.5); 150 mM NaCl; 0.1 mM EGTA, 270 mM Succrose, 0.1% β-mercaptoethanol, 1 mM benzamidine, 0.2 mM PMSF; sequence see below). The enzyme is diluted to 3.56 μM (168 μg/ml) in enzyme dilution buffer and 6 μl aliquots are stored at −80° C.
The activity of GSK3 kinase protein is measured using the Z′-LYTETM assay technology from Invitrogen (# PV3324).
The assay is performed in 384 black plates from Corning (#3676) in a final volume of 10 μl by adding 5 μl of kinase peptide mix and 2.5 μl of compound dilution. The reaction is started by addition of 2.5 μl of the 4×ATP solution.
Positive controls are reaction mixtures containing no test compound; negative controls (blanks) are reaction mixtures containing no ATP. As a further control, the phosphopeptide solution is added to wells without kinase and without ATP (=100% phosphorylation control).
The non inhibited kinase reaction will result in a phosphorylation corresponding to 20%-30% of the phosphorylation control.
The reaction is performed 1 h at room temperature. After 1h 5 μl of the development solution is added. After a further incubation for 1 h at room temperature 5 μl of the stop reagent is added. Finally the plates are read on a Flex Station II 384 (Molecular Devices).
The output text file is evaluated in an “MS-Excel—VB-Makro” and “GraphPadPrism” (Version 5) (GraphPad Software Inc.) is used to calculate the results. Data for the inhibition of GSK3beta are reported in M. data for the inhibition of the protease are reported in % CTL.

[2] = target: FLT3 (Homo sapiens (Human), UniProt P36888); experiment: FLT3 kinase test (Z'-LYTE); assay type: biochemical
Protocol: The activity of FLT3 is measured using the Z′-LYTETM assay technology from Invitrogen (#PV3191)
The reaction is started by addition of 2.5 μl of the 4×ATP solution.
Positive controls are reaction mixtures containing no test compound; negative controls (blanks) are reaction mixtures containing no kinase. As a further control, the phosphopeptide solution is added to wells without kinase (=100% phosphorylation control).
The reaction is performed for 1 h at room temperature before 5 μl of the development solution is added. After a further incubation for 1 h at room temperature 5 μl of the stop reagent is added.
The output text file is evaluated in an “MS-Excel—VB-Makro” and “GraphPadPrism” (Version 5) (GraphPad Software Inc.) is used to calculate the results. Data for the inhibition of FLT3 are reported in M. data for the inhibition of the protease are reported in % CTL.

[3] = target: Recombinant human Aurora B (amino acids 1-344) (Homo sapiens (Human), UniProt Q96GD4); experiment: Aurora B kinase test (ADP Glo luminescence); assay type: biochemical
Protocol: The activity of the Aurora B kinase protein was determined using the ADP Glo® Luminescence Kinase test (Promega; V9103X).
Serial Dilution is done in 1:10 steps in 100% DMSO.
Then 20 μl Kinase detection mix (Detection Buffer #V913B Promega; Kinase Detection Substrate #V914B Promega) were added and incubated for 40 minutes at room temperature.
(§1) The output file of the reader is a csv file that contains the well number and measured RLU. For data evaluation and calculation, the measurement of the negative control was set as 0% ctrl and the measurement of the positive control was set as 100% ctrl. Based on this values the % value for the measurement of each substance concentration was calculated using an Assay Explorer software (Accelrys). Normally, the % ctrl values calculated are between 0% and 100% values but may also occur outside these limits in individual cases based on variability or compound characteristics. The IC50 values were calculated from the % ctrl values using Assay Explorer software. Calculation: [y=(a−d)/(1+(x/c)^b)+d], a=low value, d=high value; x=conc M; c=IC50 M; b=hill; y=% ctrl.

[4] = Human liver microsomal stability test; assay type: in vitro ADME; conditions: human liver microsomes; Qh = liver blood flow
Protocol: The metabolic degradation for a specific SYK-inhibitor is performed at 37° C. with pooled human liver microsomes (human liver microsomes are commercially available as “BD UltraPool™” by Corning Life Sciences, Fogostraat 12, 1060 LJ Amsterdam, The Netherlands). The final incubation volume of 100 μl per time point contains TRIS buffer pH 7.6 at RT (0.1 M), magnesium chloride (5 mM), microsomal protein (1 mg/ml) and the test compound at a final concentration of 1 μM.
Following a short preincubation period at 37° C., the reaction is initiated by addition of beta-nicotinamide adenine dinucleotide phosphate in its reduced form (NADPH, 1 mM) and terminated by transfering an aliquot into solvent after different time points. Additionally, the NADPH-independent degradation is monitored in incubations without NADPH, terminated at the last time point.
The quenched (terminated) incubations are then pelleted by centrifugation (10000 g, 5 min).
An aliquot of the supernatant is assayed by LC-MS/MS for the remaining amount of parent compound. The half-life (t1/2 INVITRO) is determined by the slope of the semilogarithmic plot of the concentration-time profile.
The intrinsic clearance (CL_[…]) is calculated by considering the amount of protein in the incubation: CL_[…][μl/min/mg protein]=(Ln 2/(t1/2 INVITRO[min]*protein content[mg/ml]))*1000
The protein content [mg/ml] was determined with the “Bicinchoninic Acid Kit” of Sigma Aldrich (commercially available).
The upscaled intrinsic Clearance (CL_UP_INT) is calculated by considering the liver weight [g liver/kg body weight] and the microsomal recovery [mg protein/g liver]: CL_UP_INT[ml/min/kg]=0.001*CL_[…]*liver weight*microsomal recovery • with microsomal recovery=45 mg protein/g liver • with liver weight=25.7 g liver/kg body weight
The percent hepatic blood flow (% Qh) is finally calculated by considering the human liver blood flow Q [ml/min/kg]: % Qh[%]=((Q*CL_UP_INT)/(Q+CL_UP_INT)/Q)*100 • with liver blood flow (Q)=20.7 ml/min/kg.

[5] = target: Recombinant human Syk (amino acids 342-635), GST-Syk kinase fusion protein (Homo sapiens (Human), UniProt P43405); experiment: Syk kinase test (Kinase Glo luminescence); assay type: biochemical; conditions: read-out: IC50 in μM (SYK-Inhibition)
Protocol: as §1, with “measured relative light units (RLU).” for “measured RLU.”, “as 100%” for “as 0%”, “as 0%” for “as 100%”, “software. Calculation:[y=(a−d)/(1+(x/c)^b)+d]” for “software. Calculation: [y=(a−d)/(1+(x/c)^b)+d],”

[6] = read-out: IC50 in μM (FLT3-Inhibition)
[7] = read-out: IC50 in μM (AURB-Inhibition)

Sequence of FLT3 (P36888 27-993): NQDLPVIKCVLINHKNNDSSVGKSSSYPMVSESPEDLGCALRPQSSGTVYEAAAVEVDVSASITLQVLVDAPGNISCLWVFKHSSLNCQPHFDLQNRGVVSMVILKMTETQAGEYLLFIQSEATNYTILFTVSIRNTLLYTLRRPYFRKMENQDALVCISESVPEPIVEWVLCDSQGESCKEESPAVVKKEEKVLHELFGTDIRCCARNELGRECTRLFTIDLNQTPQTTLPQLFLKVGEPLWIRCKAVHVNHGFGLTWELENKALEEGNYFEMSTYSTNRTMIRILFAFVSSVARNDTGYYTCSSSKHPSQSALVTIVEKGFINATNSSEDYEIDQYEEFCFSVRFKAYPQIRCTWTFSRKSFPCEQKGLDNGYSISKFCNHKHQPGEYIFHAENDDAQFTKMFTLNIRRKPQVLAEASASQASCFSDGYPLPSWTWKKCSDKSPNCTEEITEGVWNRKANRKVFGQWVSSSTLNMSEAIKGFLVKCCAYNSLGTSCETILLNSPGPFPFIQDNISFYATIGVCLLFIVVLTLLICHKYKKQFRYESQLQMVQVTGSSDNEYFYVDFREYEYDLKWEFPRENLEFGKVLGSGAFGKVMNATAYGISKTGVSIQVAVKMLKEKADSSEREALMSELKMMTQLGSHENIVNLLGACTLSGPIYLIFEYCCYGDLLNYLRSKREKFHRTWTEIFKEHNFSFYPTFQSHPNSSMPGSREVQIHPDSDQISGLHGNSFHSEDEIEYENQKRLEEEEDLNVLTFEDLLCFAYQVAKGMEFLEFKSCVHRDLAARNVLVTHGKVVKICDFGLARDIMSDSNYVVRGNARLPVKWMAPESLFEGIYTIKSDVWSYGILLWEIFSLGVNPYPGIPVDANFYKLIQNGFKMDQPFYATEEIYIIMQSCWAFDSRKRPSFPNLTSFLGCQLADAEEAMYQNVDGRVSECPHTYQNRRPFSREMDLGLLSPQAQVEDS
Sequence of Human GSK3beta (P49841 whole entry): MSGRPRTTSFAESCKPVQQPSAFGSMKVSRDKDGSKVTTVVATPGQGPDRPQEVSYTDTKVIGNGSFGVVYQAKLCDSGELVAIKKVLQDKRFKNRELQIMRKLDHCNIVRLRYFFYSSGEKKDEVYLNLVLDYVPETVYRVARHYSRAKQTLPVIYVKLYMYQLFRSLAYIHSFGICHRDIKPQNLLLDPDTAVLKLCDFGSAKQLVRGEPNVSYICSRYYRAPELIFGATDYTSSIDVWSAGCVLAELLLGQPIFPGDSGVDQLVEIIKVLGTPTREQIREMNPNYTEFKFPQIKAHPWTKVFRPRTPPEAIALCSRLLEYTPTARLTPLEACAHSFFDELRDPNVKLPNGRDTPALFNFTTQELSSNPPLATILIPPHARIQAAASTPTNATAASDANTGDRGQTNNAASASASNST
Sequence of Recombinant human Aurora B (amino acids 1-344) (Q96GD4 whole entry, the tested form may be a part): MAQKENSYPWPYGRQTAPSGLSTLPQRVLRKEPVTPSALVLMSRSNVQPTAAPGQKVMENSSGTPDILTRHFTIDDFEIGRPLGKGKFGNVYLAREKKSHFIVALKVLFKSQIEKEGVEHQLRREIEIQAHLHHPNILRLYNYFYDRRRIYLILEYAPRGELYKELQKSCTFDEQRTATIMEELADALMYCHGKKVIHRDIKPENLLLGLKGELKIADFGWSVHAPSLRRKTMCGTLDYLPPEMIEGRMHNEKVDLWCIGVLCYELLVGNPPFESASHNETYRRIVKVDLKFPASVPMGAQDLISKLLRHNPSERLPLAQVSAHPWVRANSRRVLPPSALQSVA

Row | IC50 [1] | IC50 [2, 6] | IC50 [3, 7] | microsomal stability Cl [% Qh] [4] | IC50 [5] | IC50 ([2]; Table 1, read-out: FLT3-inhibition IC50-value) | IC50 ([3]; Table 1, read-out: AURB-inhibition IC50-value) | SMILES
1 | > 10 µM | 0.315 µM | 0.293 µM | 44 % Qh | – | – | – | C[C@@H](Oc1cc(-c2ccc3ncccc3c2)cc2ncccc12)[C@H]1CNC(=O)C1 [29 of WO 2013/014060]
2 | > 10 µM | 0.505 µM | 0.308 µM | 37 % Qh | – | – | – | C[C@@H](Oc1cc(-c2ccc3[nH]cnc3c2)cc2ncccc12)[C@H]1CNC(=O)C1 [41 of WO 2013/014060]
3 | > 10 µM | 0.618 µM | 0.63 µM | <23 % Qh | – | – | – | C[C@@H](Oc1cc(-c2ccc3cnn(C)c3c2)cc2ncccc12)[C@H]1CNC(=O)C1 [42 of WO 2013/014060]
4 | > 10 µM | 0.411 µM | 0.25 µM | <23 % Qh | – | – | – | Cc1cn2cc(-c3cc(O[C@H](C)[C@H]4CNC(=O)C4)c4cccnc4c3)ccc2n1 [61 of WO 2013/014060]
5 | > 10 µM | 0.169 µM | 0.075 µM | <23 % Qh | – | – | – | C[C@@H](Oc1cc(-c2ccc(C(=O)N3CCN(C)CC3)cc2)cc2ncccc12)[C@H]1CNC(=O)C1 [76 of WO 2013/014060]
6 | > 10 µM | 0.514 µM | 0.949 µM | <23 % Qh | – | – | – | C[C@@H](Oc1cc(-c2ccc3ncn(C)c3c2)cc2ncccc12)[C@H]1CNC(=O)C1 [81 of WO 2013/014060]
7 | 6.82 µM | 0.321 µM | 0.46 µM | 49 % Qh | 0.002 µM | – | – | Cc1nc2ccc(-c3cc(O[C@H](C)[C@H]4CNC(=O)C4)c4cccnc4c3)cc2s1 [85 of WO 2013/014060]
8 | > 10 µM | 0.14 µM | 1.05 µM | <23 % Qh | – | – | – | C[C@@H](Oc1cc(-c2ccc3c(c2)CNCC3)cc2ncccc12)[C@H]1CNC(=O)C1 [101 of WO 2013/014060]
9 | > 10 µM | 13.5 µM | > 50 µM | <23 % Qh | – | 13.5 µM | > 50 µM | COc1cc(-c2cc3nn(C)cc3c(O[C@H](C)[C@H]3CNC(=O)C3)n2)ccc1O [Example 8, (4R)-4-[(1R)-1-[6-(4-Hydroxy-3-methoxy-phenyl)-2-methyl-pyrazolo[4,3-c]pyridin-4-yl]oxyethyl]pyrrolidin-2-one]
10 | > 10 µM | – | – | 25 % Qh | – | – | – | C[C@@H](Oc1cc(-c2ccc(N3CCOCC3)cc2)cc2nn(C)cc12)[C@H]1CNC(=O)C1 [Example 22, (4R)-4-[(1R)-1-[2-Methyl-6-(4-morpholinophenyl)indazol-4-yl]oxyethyl]-pyrrolidin-2-one]

Second part, the molecule before the results:

Row | SMILES | IC50 [1] | IC50 [2, 6] | IC50 [3, 7] | microsomal stability Cl [% Qh] [4] | IC50 [5] | IC50 ([2]; Table 1, read-out: FLT3-inhibition IC50-value) | IC50 ([3]; Table 1, read-out: AURB-inhibition IC50-value)
11 | C[C@@H](Oc1nc(-c2ccc(OC(F)(F)F)c(F)c2)cc2ncccc12)[C@H]1CNC(=O)C1 [1 of WO 2011/092128] | > 10 µM | 1.53 µM | 5.09 µM | – | – | – | –
12 | COc1cc(-c2cc(O[C@H](C)[C@H]3CNC(=O)C3)c3cccnc3c2)cc(OC)c1OC [2 of WO 2013/014060] | > 10 µM | 7.39 µM | 16.9 µM | 81 % Qh | – | – | –
13 | COc1cc(-c2cc3ncccc3c(O[C@H](C)[C@H]3CNC(=O)C3)n2)ccc1OC(F)(F)F [4 of WO 2011/092128] | > 10 µM | 0.633 µM | 1.85 µM | 33 % Qh | 0.003 µM | – | –
14 | C[C@@H](Oc1cc(-c2ccccn2)cc2ncccc12)[C@H]1CNC(=O)C1 [6 of WO 2013/014060] | > 1 µM | 0.64 µM | 1.03 µM | 24 % Qh | 0.004 µM | – | –
15 | COc1cc(-c2cc3ncccc3c(O[C@H](C)[C@H]3CNC(=O)C3)n2)cc(Cl)c1OC [7 of WO 2011/092128] | > 10 µM | 0.452 µM | 2.33 µM | 79 % Qh | – | – | –
16 | COc1cc(-c2cc3ncccc3c(O[C@H](C)[C@H]3CNC(=O)C3)n2)cc(OC)c1Cl [8 of WO 2011/092128] | > 10 µM | > 50 µM | > 50 µM | 77 % Qh | – | – | –
17 | COc1ccc(-c2cc(O[C@H](C)[C@H]3CNC(=O)C3)c3cccnc3c2)cc1OC [8 of WO 2013/014060] | > 10 µM | 0.369 µM | 0.643 µM | 58 % Qh | – | – | –
18 | COc1cc(-c2cc(O[C@H](C)[C@H]3CNC(=O)C3)c3cccnc3c2)ccc1OC(C)C [10 of WO 2013/014060] | > 10 µM | 0.312 µM | 0.271 µM | 57 % Qh | – | – | –
19 | COc1cc(-c2cc(O[C@H](C)[C@H]3CNC(=O)C3)c3cccnc3c2)ccc1O [11 of WO 2013/014060] | > 10 µM | – | 0.752 µM | 24 % Qh | – | – | –
20 | COc1cc(-c2cc3ncccc3c(O[C@H](C)[C@H]3CNC(=O)C3)n2)cc(OC)c1OC [35 of WO 2011/092128] | > 10 µM | 1.18 µM | 5.21 µM | 62 % Qh | 0.001 µM | – | –
